The record followed here is ChEMBL document CHEMBL2331534, “Design, synthesis and biological evaluation of novel hybrid compounds of imidazole scaffold-based 2-benzylbenzofuran as potent anticancer agents” (Eur J Med Chem, 2013).

Experiment [1] deals with MCF7. Kind of experiment: Cytotoxicity against human MCF7 cells assessed as growth inhibition after 48 hrs by MTT assay. As to conditions: MCF7, 48 h. The class given is functional, cell-based. A general note: Tetrazolium assays rely on reduction of a dye to a coloured formazan, in cell work by metabolically active cells.
The subject of another experiment is A549. The experiment is described as follows: Cytotoxicity against human A549 cells assessed as growth inhibition after 48 hrs by MTT assay. The settings on record: A549, 48 h. Format: functional, cell-based.
In another experiment the test system is HL-60. The experiment is described as follows: Cytotoxicity against human HL60 cells assessed as growth inhibition after 48 hrs by MTT assay. The class given is functional, cell-based. As to conditions: HL-60, 48 h.
Experiment [2] concerns MCF7. Kind of experiment: Ratio of compound IC50 to DDP IC50 for growth inhibition of human MCF7 cells. The class given is functional.
For experiment [3], the system named is SMMC-7721. Kind of experiment: Cytotoxicity against human SMMC7721 cells assessed as growth inhibition after 48 hrs by MTT assay. Format: functional, cell-based. As to conditions: SMMC-7721, 48 h.
A further experiment concerns SW480. Kind of experiment: Cytotoxicity against human SW480 cells assessed as growth inhibition after 48 hrs by MTT assay. As to conditions: SW480, 48 h. Format: functional, cell-based.
Experiment [4] has as its system SMMC-7721. Kind of experiment: Ratio of compound IC50 to DDP IC50 for growth inhibition of human SMMC7721 cells. The class given is functional.

A value given as a limit tells only on which side of the number the result lay.

With `COc1ccc(C(=O)C[n+]2cn(C(c3ccccc3)c3cc4ccccc4o3)c3ccccc32)cc1.[Br-]` (configuration not stated), the 50% inhibitory concentration (IC50) in the experiment with MCF7 [1] came out at 2.29 µM; in the experiment with A549 it was 3.57 µM; in the experiment with HL-60, 1.02 µM; in the experiment on SMMC-7721 [3] it was 3.09 µM; in the experiment on SW480 it was 3.55 µM. The “Ratio IC50” value in the experiment on MCF7 [2] is given as 4.6.

As to `O=C(C[n+]1cn(C(c2ccccc2)c2cc3ccccc3o2)c2ccccc21)c1ccc2ccccc2c1.[Br-]` (configuration not stated), the IC50 is 3.13 µM with MCF7 [1]; 3.43 µM in the experiment on A549; 1.12 µM in the experiment on HL-60; 2.35 µM in the experiment on SMMC-7721 [3]; 3.18 µM in the experiment with SW480. The “Ratio IC50” value with SMMC-7721 [4] is 6.3.

Take `CS(=O)(=O)OC(c1ccccc1)c1cc2ccccc2o1` (configuration not stated): the IC50 in the experiment on MCF7 [1], with A549, in the experiment with HL-60, with SMMC-7721 [3] and with SW480 was more than 40 µM in each case.

Turning to `c1ccc(C(c2cc3ccccc3o2)n2ccnc2)cc1` (configuration not stated), the IC50 in the experiment on MCF7 [1], in the experiment on A549, with HL-60, in the experiment with SMMC-7721 [3] and in the experiment with SW480 was more than 40 µM each time.

In the case of `Cc1nccn1C(c1ccccc1)c1cc2ccccc2o1` (configuration not stated), the IC50 in the experiment on MCF7 [1], in the experiment with A549, with HL-60, in the experiment with SMMC-7721 [3] and in the experiment with SW480 was more than 40 µM in each case.

For `CCc1nccn1C(c1ccccc1)c1cc2ccccc2o1` (configuration not stated), the IC50 with MCF7 [1], in the experiment on A549, with HL-60, with SMMC-7721 [3] and in the experiment with SW480 was more than 40 µM in each case.

The term IC50 denotes the midpoint of a concentration-inhibition curve.
